Measurements taken from patent US12582648B2 (BIOPROJET Pharma, priority 2020, dated 2026).

Experiments:
[1] = system: monosynaptic spinal cord reflex; experiment: Monosynaptic response in the isolated spinal cord of rat pups (rat model of RLS); conditions: for inhibition of the monosynaptic reflex: reference agonists applied to isolated rat spinal cord
Method: RLS is believed to reflect an abnormal sensitivity of spinal stretch reflexes. These reflexes are modulated in an inhibitory fashion by dopamine released in the dorsal horn from a descending dopaminergic projection arising from A11 dopamine cells in the hypothalamus.
Electrophysiological responses i.e. motor action potentials recorded on the ventral root of isolated spinal cord from rat pups following stimulation of the dorsal root were analyzed.

RLS patients = experiment: Double-blind placebo-controlled clinical trial in restless legs syndrome; type: in vivo, human; conditions: 15 mg twice a day for two weeks
Method: Clinical Studies: Efficacy of BP1.4979 in Restless Legs Syndrome (Randomized, Double Blind Parallel Groups Sequential, Placebo Controlled, Clinical Trial)
The double-blind trial was conducted on 29 patients.

human D3 receptor = molecular target: T1, human D3 receptor (Homo sapiens, UniProt P35462); experiment: GTPγ35S binding assay at D3 dopamine receptor (CHO cell membranes); type: biochemical; conditions: GTPγ[35S] assay, dopamine as full agonist reference
T1 construct: expressed in transfected cells
Method: Thawed membranes from CHO cells stably expressing human D3 receptor were diluted at a final concentration of 5 μg/180 μL/well in a binding buffer containing HEPES 50 mM, MgCl2 3 mM, NaCl 140 mM, GDP 4 μM, pH=7.4 and distributed in 96 well polystyrene microplate. […] After transfer in a Millipore GF/C HTS® microplate, the filtration of the reactional mix followed by a three time 250 μl wash put an end to the reaction. The filter-bound radioactivity was measured in a liquid scintillation counter Microbeta with 70 μl of scintillation fluid.

[2] = molecular target: human dopamine D3 receptor (Homo sapiens, UniProt P35462); experiment: Mitogenesis assay of D3-receptor activation ([3H]-thymidine incorporation, CHO cells); type: cell-based; conditions: for agonist behaviour (partial / full): human D3 receptor
Method: Mitogenesis Assay of D3-Receptor Activation
Chinese hamster ovary (CHO) cells stably expressing the human dopamine D3 receptor were plated overnight in 96-well plates. Cells were then washed with serum-free medium, and incubated 20 h with various concentrations of ligands. Tritiated thymidine was added for a 4 hour-pulse. Then, the cells were detached with trypsin/EDTA, transferred in GF/C multiscreen microplates, rinsed with ice-cold PBS and ethanol and dried. [^3H]-Thymidine incorporation was measured by liquid scintillation in a MicroBeta counter.
Results are expressed as percentage of the maximal [^3H]-thymidine incorporation yielded with the full agonist quinelorane.

healthy smokers = experiment: Weight gain during smoking cessation, double blind clinical trial; type: in vivo, human; conditions: for weight increase: after twelve weeks; for weight increase compared to the weight before treatment: twelve further weeks after the end of treatment
[3] = system: 160 other receptors, channels or enzymes; experiment: Activity at 160 other receptors, channels or enzymes
human D2 receptor = human D2 receptor (Homo sapiens, UniProt P14416); experiment: Affinity at the human D2 receptor; type: binding
[4] = molecular target: T2, human dopamine D2 short isoform (Homo sapiens, UniProt P14416); experiment: Calcium fluxes assay of D2-receptor activation/inhibition (HEK293 cells); type: cell-based; conditions: calcium flux; for agonist behaviour at D2 receptor: BP1.4979 at concentrations up to 1,000 nM; for EC50: HEK293 cells, human D2 short isoform
T2 construct: expressed in transfected cells; host or cells: HEK293 cells
Method: Calcium Fluxes Assay of D2-Receptor Activation/Inhibition
HEK293 cells expressing the human dopamine D2 short isoform were used to evaluate the potential agonist property of test compounds. Cells were loaded with Fluo-4-AM solution supplemented with sulfinpyrazone then plated in a 96-well plate and introduced in a FLEX station for fluorescence measurement following calcium transients.
Responses were calculated as the maximum minus the minimum fluorescence counts (Fmax−Fmin).

Chain of human dopamine D3 receptor (P35462 whole entry): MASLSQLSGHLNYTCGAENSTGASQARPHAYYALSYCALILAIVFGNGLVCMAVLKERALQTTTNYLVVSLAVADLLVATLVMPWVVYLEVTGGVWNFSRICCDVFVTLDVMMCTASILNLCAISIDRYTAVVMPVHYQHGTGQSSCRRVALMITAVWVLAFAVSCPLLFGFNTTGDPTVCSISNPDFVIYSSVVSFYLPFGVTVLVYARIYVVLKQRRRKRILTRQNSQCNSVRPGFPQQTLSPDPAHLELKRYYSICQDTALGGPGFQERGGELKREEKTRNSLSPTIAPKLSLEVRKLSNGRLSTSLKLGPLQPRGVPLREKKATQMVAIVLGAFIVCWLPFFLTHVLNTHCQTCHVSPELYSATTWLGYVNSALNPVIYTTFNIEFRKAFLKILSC
T2 sequence (P14416 1-414 isoform P14416-2): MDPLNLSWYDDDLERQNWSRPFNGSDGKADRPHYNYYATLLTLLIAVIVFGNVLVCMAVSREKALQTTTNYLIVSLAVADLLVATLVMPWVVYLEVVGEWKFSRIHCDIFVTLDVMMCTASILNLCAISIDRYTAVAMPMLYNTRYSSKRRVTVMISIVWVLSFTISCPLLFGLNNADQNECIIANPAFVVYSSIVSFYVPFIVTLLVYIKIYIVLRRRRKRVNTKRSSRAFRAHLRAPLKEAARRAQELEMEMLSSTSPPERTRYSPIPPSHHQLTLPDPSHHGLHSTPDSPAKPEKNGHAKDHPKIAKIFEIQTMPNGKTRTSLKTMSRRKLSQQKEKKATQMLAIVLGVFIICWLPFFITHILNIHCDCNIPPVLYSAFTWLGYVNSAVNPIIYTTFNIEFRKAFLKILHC
T1 sequence (P35462 whole entry): as the sequence (P35462 whole entry) above
Chain of human D2 receptor (P14416 whole entry, canonical isoform): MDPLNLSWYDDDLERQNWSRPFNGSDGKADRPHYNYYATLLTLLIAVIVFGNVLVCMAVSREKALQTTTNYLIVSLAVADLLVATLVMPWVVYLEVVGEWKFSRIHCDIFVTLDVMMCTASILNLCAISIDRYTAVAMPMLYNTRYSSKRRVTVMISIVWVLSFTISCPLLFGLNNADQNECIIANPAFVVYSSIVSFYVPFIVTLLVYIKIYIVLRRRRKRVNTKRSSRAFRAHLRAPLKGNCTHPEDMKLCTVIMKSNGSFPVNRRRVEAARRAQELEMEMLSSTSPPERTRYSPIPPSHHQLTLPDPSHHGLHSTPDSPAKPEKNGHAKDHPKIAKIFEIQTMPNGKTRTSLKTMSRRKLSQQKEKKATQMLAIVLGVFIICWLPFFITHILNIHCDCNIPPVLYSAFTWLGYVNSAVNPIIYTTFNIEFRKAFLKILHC

Question: How did the “inhibition of the monosynaptic reflex” value [1] turn out when CCCN(CCC)C1CCc2ccc(O)cc2C1 (stereo not shown) [7-OHDPAT, reference compound] was run?
Answer: total or nearly total inhibition

Question: What does the source list for COCCC(=O)N[C@H]1CC[C@H](CCN2CCN(c3cccc(C#N)c3)CC2)CC1 [BP1.4979, N-(4-{2-[4-(3-Cyanophenyl)piperazin-1-yl]ethyl}cyclohexyl)-3-methoxypropanamide]?
Answer: nausea and vomiting side-effects (RLS patients): no patient reported any symptom related to nausea nor did had vomiting episodes; partial activity (human D3 receptor): < 5%; Emax ([2]; CHO, read-out: intrinsic activity): 30%; EC50 ([2]; mitogenesis, CHO cells expressing human D3 receptor): 0.7 nM; agonist behaviour (partial / full) ([2]; mitogenesis): partial agonist; weight increase (healthy smokers; 3 mg once a day): 0.9 kg; weight increase compared to the weight before treatment (healthy smokers; 3 mg once a day): 2.0 kg; weight increase (healthy smokers; 10 mg once a day): 0.5 kg; weight increase compared to the weight before treatment (healthy smokers; 10 mg once a day): 1.4 kg; weight increase (healthy smokers; 15 mg once a day): 0.0 kg; weight increase compared to the weight before treatment (healthy smokers; 15 mg once a day): 0.2 kg; activity at 160 other receptors, channels or enzymes [3]: inactive; behaviour at the human D2 receptor (human D2 receptor): pure antagonist; inhibition of the synaptic transmission ([1]; 30 nM, stimulation 40 V, 50 μs of the dorsal root): inhibited fully; amplitude of the post-synaptic response on the ventral root ([1]; another series of experiments, supraliminar stimulation of the dorsal root): dose dependently inhibited; effect on post-synaptic response in the presence of the dopamine D3 antagonist BP1.4096 ([1]; in the presence of BP1.4096): prevented; blockade of the effect of dopamine or agonists ([4]; antagonist mode): block completely; agonist behaviour at D2 receptor [4]: failed to activate the receptor

Question: For NCCc1ccc(O)c(O)c1 [Dopamine, dopamine, reference compound], which “inhibition of the monosynaptic reflex” value [1] is on record?
Answer: total or nearly total inhibition

Question: What does the source list for CCCN(CCC)CCc1cccc2c1CC(=O)N2 [Ropinirole]?
Answer: agonist behaviour (partial / full) ([2]; mitogenesis): full agonists; EC50 [4]: 20 nM; agonist behaviour at D2 receptor [4]: full agonists

Question: Which results are given for CCCN(CCc1cccs1)[C@H]1CCc2c(O)cccc2C1 [Rotigotine]?
Answer: EC50 [4]: 0.3 nM; agonist behaviour at D2 receptor [4]: full agonists
